The test system of this assay is P388 leukemia ip, CD2F1 mice, survival T/C. Description: NCI In Vivo Anticancer Drug Screen. Data for tumor model P388 Leukemia (intraperitoneal) in CD2F1 (CDF1) mice. The conditions noted are these: endpoint: median survival time, higher = longer survival. An outline of the steps:
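Mice carrying the transplanted tumor received test compound or vehicle. Survival was recorded in each group, and the value is the treated-group measurement divided by that of the vehicle-treated control group.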

[1] abbreviates: dose: 100.0 mg/kg/injection, schedule: Q04DX002 (ip), vehicle: saline with Tween-80.
[2] abbreviates: dose: 50.0 mg/kg/injection, schedule: Q01DX005 (ip), vehicle: Klucel (hydroxypropylcellulose) (HPC).
Where [3] appears, read: dose: 100.0 mg/kg/injection, schedule: Q01DX005 (ip), vehicle: Klucel (hydroxypropylcellulose) (HPC).
Setting [4] is: dose: 200.0 mg/kg/injection, schedule: Q01DX005 (ip), vehicle: Klucel (hydroxypropylcellulose) (HPC).
Setting [5] is: dose: 50.0 mg/kg/injection, schedule: Q01DX009 (ip), vehicle: saline with Tween-80.
The mark [6] stands for this setting: dose: 100.0 mg/kg/injection, schedule: Q01DX009 (ip), vehicle: saline with Tween-80.
[7] abbreviates: dose: 200.0 mg/kg/injection, schedule: Q01DX009 (ip), vehicle: saline with Tween-80.
[8] abbreviates: dose: 60.0 mg/kg/injection, schedule: Q01DX005 (ip), vehicle: saline with Tween-80.
Setting [9] is: dose: 120.0 mg/kg/injection, schedule: Q01DX005 (ip), vehicle: saline with Tween-80.
The mark [10] stands for this setting: dose: 100.0 mg/kg/injection, schedule: Q04DX003 (ip), vehicle: Klucel (hydroxypropylcellulose) (HPC).

Where “and” joins values, the source holds several entries; their conditions need not be identical. Equal entries are not always repeated. Toxic doses and inconclusive results are not listed.

The text below walks through data of PubChem BioAssay AID330 (DTP/NCI, 2004).

`O=C(CCBr)N1CCN(C(=O)CCBr)CC1`: the T/C (dose: 2.5 mg/kg/injection, schedule: Q01DX009 (ip), vehicle: saline) is 100 % of control; the T/C (dose: 5.0 mg/kg/injection, schedule: Q01DX009 (ip), vehicle: saline) is 104 % of control; the T/C (dose: 5.0 mg/kg/injection, schedule: Q01DX010 (ip), vehicle: Klucel (hydroxypropylcellulose) (HPC)) is 108 % of control; the T/C (dose: 10.0 mg/kg/injection, schedule: Q01DX009 (ip), vehicle: saline) was 112 % of control; the T/C (dose: 10.0 mg/kg/injection, schedule: Q01DX010 (ip), vehicle: Klucel (hydroxypropylcellulose) (HPC)) was 120 % of control; the T/C (dose: 20.0 mg/kg/injection, schedule: Q01DX009 (ip), vehicle: saline) was 112 % of control. Also, the T/C (dose: 40.0 mg/kg/injection, schedule: Q01DX009 (ip), vehicle: saline) was 169 % of control; the T/C (dose: 40.0 mg/kg/injection, schedule: Q01DX010 (ip), vehicle: Klucel (hydroxypropylcellulose) (HPC)) was 171 % of control; the T/C (dose: 80.0 mg/kg/injection, schedule: Q01DX009 (ip), vehicle: saline) was 110 % of control; the T/C (dose: 80.0 mg/kg/injection, schedule: Q01DX010 (ip), vehicle: Klucel (hydroxypropylcellulose) (HPC)) is 91 % of control.

In the case of `NCCn1[nH]c(=O)c2ccncc2c1=O`, the T/C reads like this: under setting [1], 94 % of control; (dose: 200.0 mg/kg/injection, schedule: Q04DX002 (ip), vehicle: saline with Tween-80) 92 % of control; (dose: 400.0 mg/kg/injection, schedule: Q04DX002 (ip), vehicle: saline with Tween-80) 92 % of control.

As for `OCC1(c2ccncc2)OCCO1`, the T/C is 101 % of control (dose: 50.0 mg/kg/injection, schedule: Q01DX005 (ip), vehicle: saline); 104 % of control (dose: 100.0 mg/kg/injection, schedule: Q01DX005 (ip), vehicle: saline); 92 % of control (dose: 200.0 mg/kg/injection, schedule: Q01DX005 (ip), vehicle: saline).

As for `CC(NC(=O)/C=C/c1ccco1)C(=O)NC(Cc1ccccc1)C(N)=O` (stereo unspecified), the T/C by setting is: under setting [2], 104 % of control; under setting [3], 106 % of control; under setting [4], 104 % of control.

In the case of `CN(C)CC(CN(C)C)C(=O)c1ccc(Oc2ccc(Cl)c(Cl)c2)cc1`, the T/C by setting is: (dose: 1.88 mg/kg/injection, schedule: Q01DX005 (ip), vehicle: saline) 107 % of control; (dose: 3.75 mg/kg/injection, schedule: Q01DX005 (ip), vehicle: saline) 109 % of control; (dose: 7.5 mg/kg/injection, schedule: Q01DX005 (ip), vehicle: saline) 117 % of control.

In the case of `CC(=O)N1CCc2cc(N)ccc21`, the T/C was 95 % of control under setting [5], 86 % of control under setting [6] and 90 % of control under setting [7].

Consider `COC(=O)C(=O)c1c(C(=O)OC)nc2nnc(N)n2c1-c1cccc([N+](=O)[O-])c1`, for which the T/C by setting is: (dose: 15.0 mg/kg/injection, schedule: Q01DX005 (ip), vehicle: saline with Tween-80) 92 % of control; (dose: 30.0 mg/kg/injection, schedule: Q01DX005 (ip), vehicle: saline with Tween-80) 91 % of control; under setting [8], 88 % of control; under setting [9], 86 % of control.

Consider `N#Cc1ccc2c(ccc3ncccc32)n1`, for which the T/C (dose: 25.0 mg/kg/injection, schedule: Q04DX002 (ip), vehicle: saline with Tween-80) was 100 % of control; the T/C (dose: 50.0 mg/kg/injection, schedule: Q04DX002 (ip), vehicle: saline with Tween-80) was 100 % of control; the T/C under setting [1] is 101 % of control.

As for `NS(=O)(=O)c1cccnc1Nc1cccc(Cl)c1Cl`, the T/C runs as follows: (dose: 50.0 mg/kg/injection, schedule: Q01DX009 (ip), vehicle: saline) 100 % of control; (dose: 100.0 mg/kg/injection, schedule: Q01DX009 (ip), vehicle: saline) 100 % of control; (dose: 200.0 mg/kg/injection, schedule: Q01DX009 (ip), vehicle: saline) 96 % of control.

`CC(C)C1SCC(=O)N1c1nncs1` (stereo unspecified): the T/C is, setting by setting: under setting [8], 103 % of control; under setting [9], 112 % of control; (dose: 240.0 mg/kg/injection, schedule: Q01DX005 (ip), vehicle: saline with Tween-80) 107 % of control.

With `COC1C=C(Cl)C(=O)C(C)O1` (stereo unspecified), the T/C reads like this: (dose: 25.0 mg/kg/injection, schedule: Q04DX003 (ip), vehicle: Klucel (hydroxypropylcellulose) (HPC)) 100 % of control; (dose: 50.0 mg/kg/injection, schedule: Q04DX003 (ip), vehicle: Klucel (hydroxypropylcellulose) (HPC)) 106 % of control; under setting [10], 100 % of control.

Take `Nn1c(=S)[nH]nc(/C=C/c2ccc3c(c2)OCO3)c1=O`: the T/C was 89 % of control under setting [5], 91 % of control under setting [6] and 98 % of control under setting [7].

As to `OCC(O)C(O)Cc1cnc(C(O)C(O)C(O)CO)cn1` (stereo unspecified), the T/C (dose: 50.0 mg/kg/injection, schedule: Q01DX009 (ip), vehicle: other) was 93 % of control; the T/C (dose: 100.0 mg/kg/injection, schedule: Q01DX009 (ip), vehicle: other) is 96 % of control; the T/C (dose: 200.0 mg/kg/injection, schedule: Q01DX009 (ip), vehicle: other) was 102 % of control; the T/C (dose: 400.0 mg/kg/injection, schedule: Q01DX009 (ip), vehicle: other) is 108 % of control; the T/C (dose: 800.0 mg/kg/injection, schedule: Q01DX009 (ip), vehicle: other) was 102 % of control.

`CCCCCCC(=O)CC(SCC)c1ccccc1` (stereo unspecified): the T/C under setting [5] is 106 % of control, the T/C under setting [6] is 113 % of control and the T/C under setting [7] was 114 % of control.

For the molecule `COC1/C=C\CC2=CCCC=C2CC1` (stereo unspecified), the T/C is 100 % of control (dose: 25.0 mg/kg/injection, schedule: Q01DX009 (sc), vehicle: olive oil, sesame oil, peanut oil); 97 % of control (dose: 50.0 mg/kg/injection, schedule: Q01DX009 (sc), vehicle: olive oil, sesame oil, peanut oil); 97 % of control (dose: 100.0 mg/kg/injection, schedule: Q01DX009 (sc), vehicle: olive oil, sesame oil, peanut oil); 95 % of control (dose: 200.0 mg/kg/injection, schedule: Q01DX009 (sc), vehicle: olive oil, sesame oil, peanut oil).

Regarding `Cc1cccc(/C=C/C(=O)C(C)CN(C)C)c1` (stereo unspecified), the T/C was 98 % of control (dose: 15.0 mg/kg/injection, schedule: Q01DX005 (ip), vehicle: saline); 105 % of control (dose: 30.0 mg/kg/injection, schedule: Q01DX005 (ip), vehicle: saline); 107 % of control and 116 % of control (dose: 60.0 mg/kg/injection, schedule: Q01DX005 (ip), vehicle: saline).

Take `CCOC(=O)CNC(=O)/C=C\C(=O)NC(=O)OCC`: the T/C by setting is: (dose: 3.7 mg/kg/injection, schedule: Q01DX009 (ip), vehicle: saline with Tween-80) 110 % of control; (dose: 7.5 mg/kg/injection, schedule: Q01DX009 (ip), vehicle: saline with Tween-80) 107 % of control.

As for `O=CC(CO)CC(C=O)n1cnc2c(=O)[nH]cnc21` (stereo unspecified), the T/C runs as follows: (dose: 150.0 mg/kg/injection, schedule: Q01DX005 (ip), vehicle: saline) 155 % of control and 158 % of control; (dose: 300.0 mg/kg/injection, schedule: Q01DX005 (ip), vehicle: saline) 165 % of control and 174 % of control.

Consider `O=[N+]([O-])c1ccc(C(c2ccccc2)c2ccccc2)cc1`, for which the T/C under setting [7] is 90 % of control.

For the molecule `CCN(CC)CCCC(C)Nc1ccc2ccc(Cl)cc2n1` (stereo unspecified), the T/C (dose: 50.0 mg/kg/injection, schedule: Q01DX005 (ip), vehicle: saline + Tween-80 + alcohol) is 101 % of control; the T/C (dose: 100.0 mg/kg/injection, schedule: Q01DX005 (ip), vehicle: saline + Tween-80 + alcohol) was 101 % of control; the T/C (dose: 200.0 mg/kg/injection, schedule: Q01DX005 (ip), vehicle: saline + Tween-80 + alcohol) is 100 % of control.

As for `Cn1cc(/C=C/[N+](=O)[O-])c2ccccc21`, the T/C is 105 % of control under setting [10]; 99 % of control (dose: 200.0 mg/kg/injection, schedule: Q04DX003 (ip), vehicle: Klucel (hydroxypropylcellulose) (HPC)); 100 % of control (dose: 400.0 mg/kg/injection, schedule: Q04DX003 (ip), vehicle: Klucel (hydroxypropylcellulose) (HPC)).

Take `O=S1(=O)C(c2ccccc2)=C(O)c2cc3ccccc3nc21`: the T/C reads like this: under setting [5], 107 % of control; under setting [6], 112 % of control; under setting [7], 107 % of control.

On to `CN1CC[S][Sn]([CH2][Sn]2([c]3ccccc3)[S]CCN(C)CC[S]2)([c]2ccccc2)[S]CC1`, for which the T/C runs as follows: under setting [2], 99 % of control; under setting [3], 101 % of control; under setting [4], 100 % of control.
